Molecules are shown by their SMILES.

Results on eight compounds are retold here after patent US6159994A, “Histamine H3 receptor ligands” (James Black Foundation, priority 1997, dated 2000).

One assay deals with T1, histamine H3 receptor (Cavia porcellus, UniProt Q9JI35).
T1 construct: the longitudinal muscle layer and adhering myenteric plexus was teased away; from tissue; host or cells: guinea pig ileum longitudinal muscle with adhering myenteric plexus (intact tissue strips)
Put plainly: Guinea pig ileal longitudinal muscle, myenteric plexus functional assay (antagonism of R-(α)-methylhistamine inhibition of electrically-stimulated contraction). The class given is cell-based. Particulars: guinea pig ileum; antagonist affinity from rightward shift of R-(α)-methylhistamine E/[A] curves (Schild); typical variance ±0.15 log units; read-out: pKB (functional assay) - ileum (converted). The method, then:
The biological activity of the compounds of the examples was measured using the ileal longitudinal muscle, myenteric plexus assay described by Paton and Aboo Zar (J. Physiol. 1968, 194, 13-33). Male Dunkin-Hartley guinea pigs (250-300 g) were employed. Briefly, a 50 cm portion of ileum proximal to the caecum was removed, after discarding the terminal 20 cm. Ileal segments (3 cm) were cleaned by passing Krebs-Henseleit buffer containing 3 μM mepyramine gently through the ileum using a Pasteur pipette (size: 13.8 cm length, 0.65 cm diameter). To avoid unnecessary damage to the tissue, Krebs-Henseleit buffer was passed through the ileal segment, while it was lying horizontally on a petri dish. Therefore, the ileum was not over-distended and the buffer flowed through with ease. Each segment was then passed over a Pasteur pipette and the longitudinal muscle layer and adhering myenteric plexus was teased away using moist cotton wool, by stroking tangentially away from the mesenteric attachment. The tissues were suspended in 20 ml organ baths containing Krebs-Henseleit buffer at 37±1° C. and gassed with […]. The tissues were ligated to two parallel stainless steel wires, situated between two platinum electrodes (0.76 cm length, 0.06 cm diameter). All measurements were recorded isometrically (Grass FTO3 transducer). Following an initial loading tension of 1 g, the tissues were stimulated with electrical pulses at a frequency of 0.1 lHz and a pulse duration of 0.5 msec, as described by Kosterlitz & Watt (Br. J. Pharmacol. 1968, 266-276). Initially, the tissues were stimulated at supramaximal (1.3 fold times maximal) voltage for a period of 30 min and then the tissues were washed and re-stimulated.A "sighter dose" of the selective histamine H3 -receptor agonist, R-(α)-methylhistamine (0.3 μM) (Arrang el al. Nature, 1987, 117-123), was administered. Upon generation of response, the "sighter dose" was removed from the tissues by "washout" (6 washes over 60 min) and during this period the electrical stimulation was switched off. The tissues were then re-stimulated and allowed to stabilise prior to the addition of drug treatments, which were allocated on a randomised block basis to the organ baths. Following the incubation period, a single cumulative E/[A] curve was obtained. The experimental E/[A] curve data was expressed as the percentage inhibition of the peak height of electrically-stimulated contraction. Antagonist affinity values were calculated from the degree of rightward shift of the R-(α)-methylhistamine E/[A] curves using Schild's methods (Arunlakshana & Schild Br. J. Pharmacol, 1959, 48-58). Typical variance in this assay is ±0.15 log units.

For assay [1], the target named is T2, Histamine H3 receptor (guinea pig cortex membranes) (Cavia porcellus, UniProt Q9JI35).
T2 construct: The cortex was dissected, weighed and homogenised; from tissue; host or cells: guinea pig cerebral cortex membranes
T2 sequence (Q9JI35 whole entry): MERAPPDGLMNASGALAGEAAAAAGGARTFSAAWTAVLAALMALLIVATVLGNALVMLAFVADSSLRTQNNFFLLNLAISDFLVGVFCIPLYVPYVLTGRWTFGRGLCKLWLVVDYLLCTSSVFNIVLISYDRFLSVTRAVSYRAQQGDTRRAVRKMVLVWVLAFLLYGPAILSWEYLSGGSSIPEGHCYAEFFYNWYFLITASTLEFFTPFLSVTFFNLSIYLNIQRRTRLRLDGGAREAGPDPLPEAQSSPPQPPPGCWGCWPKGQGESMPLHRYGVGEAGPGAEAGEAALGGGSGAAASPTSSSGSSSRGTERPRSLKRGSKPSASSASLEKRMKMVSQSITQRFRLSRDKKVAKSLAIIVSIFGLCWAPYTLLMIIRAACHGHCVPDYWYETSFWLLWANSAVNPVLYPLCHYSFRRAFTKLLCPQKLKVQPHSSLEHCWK
The assay is described as follows: Histamine H3 radioligand binding assay - guinea pig cortex. Particulars: [3H]-R-α-methylhistamine 0.1 nM final, typical variance ±0.12 log units, read-out: pKI (binding assay) - cortex (converted). As to the method: (§1) Data are analysed using GraphPad prism and the general equation for a competition curve with variable Hill slope (nH). [formula] where
(§2) X is the log concentration of competing compound,
(§3) Y is the binding obtained at each concentration of X,
(§4) pIC50 is the […] required to compete for half of the specific binding.
The IC50 is converted to the KI using the Cheng Prusoff equation,
IC50 is the concentration of competitor required to compete for half the specific binding,
L is the radioligand concentration used,
KD is the equilibrium dissociation constant for the radioligand determined by saturation experiments.
Histamine H3 radioligand binding assay--guinea pig cortex
Male Dunkin Hartley guinea pigs (200-300 g) were used. The whole brain was removed and immediately placed in ice-cold 20 mM Hepes-NaOH buffer (pH7.4 at 21±3° C.). The cortex was dissected, weighed and homogenised in ice-cold 20 mM Hepes-NaOH buffer (pH7.4 at 21±3° C.) (50 ml/guinea-pig cortex) using a polytron (Kinematica AG; PT-DA 3020/2TS, 3×3s). The homogenate was centrifuged at 100×g for 5 min and the supernatants pooled and stored at 4° C. The pellets were rehomogenised in fresh ice-cold buffer (80 ml) and recentrifuged (100×g for 5 min). The supernatants were pooled and pellets rehomogenised and recentrifuged (100×g for 5 min). All supernatants were pooled and centrifuged at 39,800×g for 12 min at 4° C. The final pellet was resuspended in 20 mM Hepes-NaOH buffer (pH7.4 at 21±3° C.) to a tissue concentration of 7.5 mg.ml^-1, using a teflon-in-glass homogeniser.
These were essentially identical to those used for the guinea pig ileum myenteric plexus assay described above, except that the final assay concentration of [^3 H]-R-α-methylhistamine was 0.1 nM. Typical variance in this assay is ±0.12 log units.

The target in assay [2] is T3, Histamine H3 receptor (guinea pig ileum longitudinal muscle myenteric plexus membranes) (Cavia porcellus, UniProt Q9JI35).
T3 construct: Guinea pig ileum longitudinal muscle myenteric plexus membranes; from tissue; host or cells: guinea pig ileum longitudinal muscle myenteric plexus membranes
T3 sequence (Q9JI35 whole entry): as above
The assay is described as follows: Histamine H3 radioligand binding assay - guinea pig ileum. Particulars: [3H]-R-α-methylhistamine (50 μl; 3 nM), 165 min, 21±3° C., pH7.4, typical variance ±0.12 log units, read-out: pKI (binding assay) - ileum (converted). The method, then: Histamine H3 radioligand binding assay--guinea pig ileum
Male Dunkin Hartley guinea pigs (200-300 g) were used. The small intestine was rapidly removed (cut ^- 5 cm from caecum and 5 cm from stomach) and placed in ice-cold 20 mM Hepes-NaOH buffer (pH7.4 at 21±3° C.). The tissue was cut into ^- 10 cm segments, flushed through with ice-cold 20 mM Hepes-NaOH buffer and placed in a beaker containing fresh buffer at 4° C. 10 cm segments of ileum were threaded onto a glass pipette and the longitudinal muscle myenteric plexus was peeled away from the circular muscle using damp cotton-wool. Longitudinal muscle myenteric plexus was immediately placed in ice-cold Viaspan® solution (^~ 100 ml for tissue from 3 guinea pigs) and placed in the refrigerator for 24 hours.
Pre-soaked tissue was weighed and minced with scissors. The tissue was then homogenised in Viaspan® using a polytron (Kinematica AG; PT-DA 3020/2TS, 3×^- 1-2s). 50 ml of 500 mM Tris HCl (pH6.9 at 21±3° C.) was added to the tissue and the mixture centrifuged at 39,800×g for 12 min at 4° C. The supernatant was discarded and rehomogenised in 100 ml ice-cold 20 mM Hepes-NaOH buffer (pH7.4 at 21±3° C.) using a teflon-in-glass homogeniser (setting 10; 3×). The homogenate was recentrifuged at 39,800×g and the pellet resuspended in 20 mM Hepes-NaOH buffer (pH7.4 at 21±3° C.), to a tissue concentration of 50 mg.ml^-1, using a polytron (Brinkman, PT10, 3×^~1 s).
Guinea pig ileum longitudinal muscle myenteric plexus membranes (400 μl) were incubated for 165 min at 21±3° C. in a final volume of 500 μl with 20 mM Hepes-NaOH buffer containing [^3 H]-R-α-methylhistamine (50 μl; 3 nM) and competing compound. Total and non-specific binding of [^3 H]-R-α-methylhistamine were defined using 50 μl of buffer and 50 μl of 10 μM thioperamide, respectively. The assay was terminated by rapid filtration through Whatman GF/B filters, presoaked (2 hr) in 0.1% polyethyleneimine, using a Brandell Cell Harvester. The filters were washed (3×3 ml) with ice-cold 50 mM Tris-HCl (pH6.9 at 21±3° C.), transferred into scintillation vials, 5 ml liquid scintillation cocktail was added and after 4 hours the bound radioactivity was determined by counting (4 min) in a Beckman liquid scintillation counter.
as §1, §2, §3, §4
The IC50 is converted to the KI using the Cheng Prusoff equation, […]
KD is the equilibrium dissociation constant for the radioligand determined by saturation experiments. […]

T1 sequence (Q9JI35 whole entry): as above

Consider `O=S1(=O)NCCN1CCc1c[nH]cn1` [Example 2, 2-(2-(4-imidazolyl)ethyl)-1,2,5-thiadiazolidine-1,1-dioxide], for which the Kb at histamine H3 receptor was 240 nM. In addition, in assay [1], the Ki was 4170 nM.

For the compound `O=C1C(Cc2ccc(Cl)cc2)NS(=O)(=O)N1CCCCc1c[nH]cn1` (centres unmarked) [Example 7, 2-(4-(4-imidazolyl)butyl)-4-(4-chlorophenyl)methyl-1,2,5-thiadiazolidin-3-one-1,1-dioxide], the Kb at histamine H3 receptor is 44.7 nM. Also, the Ki in assay [1] was 0.513 nM.

Consider `O=S1(=O)NC(Cc2ccc(Cl)cc2)CN1CCCCCc1c[nH]cn1` (centres unmarked) [Example 1, 4-(4-chlorophenyl)methyl-2-(5-(4-imidazolyl)pentyl)-1,2,5-thiadiazolidine-1,1-dioxide], for which, on histamine H3 receptor, the Kb was 123 nM. The figures for the Ki in assay [2] and in assay [1] were 42.7 nM and 46.8 nM, respectively.

Consider `C[C@H]1CN(CCc2c[nH]cn2)[S+]([O-])N1` (stereo partly drawn) [Example 6, 2-(4-imidazolyl)ethyl-4(S)-methyl-1,2,5-thiadiazolidine-1-oxide], for which the Kb on histamine H3 receptor is 891 nM. For the same compound, the Ki in assay [2] is 1660 nM; in assay [1], 43.7 nM.

Regarding `O=C1CNS(=O)(=O)N1CCCCc1c[nH]cn1` [Example 8, 2-(4-(4-imidazolyl)butyl)-1,2,5-thiadiazolidin-3-one-1,1-dioxide], the Kb on histamine H3 receptor was 2400 nM. Further, the Ki in assay [1] is 501 nM.

Consider `O=S1(=O)NCCN1CCCc1c[nH]cn1` [Example 3, 2-(3-(4-imidazolyl)propyl)-1,2,5-thiadiazolidine-1,1-dioxide], for which the Kb on histamine H3 receptor was 355 nM. Moreover, the results for the Ki in assay [2] and in assay [1] were 13.5 nM and 2.57 nM, respectively.

In the case of `O=S1(=O)N(CCCc2c[nH]cn2)CCN1Cc1ccccc1` [Example 5, 5-benzyl-2-(3-(4-imidazolyl)propyl)-1,2,5-thiadiazolidine-1,1-dioxide], the Kb at histamine H3 receptor is over 10000 nM. The results for the Ki in assay [2] and in assay [1] were 2950 nM and 6310 nM, respectively.

For the compound `O=C1CNS(=O)(=O)N1CCCc1c[nH]cn1` [Example 4, 2-(3-(4-imidazolyl)propyl)-1,2,5-thiadiazolidin-3-one-1,1-dioxide], the Kb on histamine H3 receptor was 1780 nM. Besides, the Ki in assay [1] is 115 nM.
